In article PMC9916778 (International Journal of Molecular Sciences, 2023):

Experiments:
[1] = system: PC-3 prostate adenocarcinoma cells; test: In vitro cytotoxicity (MTT assay), PC-3; assay type: cell-based, human; conditions: ± standard deviation, triplicate
Description: (§1) The testing was performed on the ovarian carcinoma (A2780), Cisplatin-resistant ovarian carcinoma (A2780R), prostate adenocarcinoma (PC-3), prostate carcinoma (22Rv1), and leukemia monocytic (THP-1) and intestinal colon adenocarcinoma (LS180) human cell lines that were obtained from the ATCC collection of cell lines and cultivated according to the producer’s instructions. The reference normal cell line of human fetal fibroblasts (MRC-5) was obtained from the same commercial source and maintained according to the producer’s instructions. The half-maximal inhibitory concentrations (IC50) were calculated from dose–response curves by means of the GraphPad Prism 6 software (GraphPad Software, San Diego, CA, USA).

caspases 3/7 = test: Caspase 3/7 activation (flow cytometry); assay type: cell-based, human; conditions: A2780, half-cytotoxic concentration, 24 h
Description: The induction of cell death by complex (1) was studied by two methods in the A2780 cell line. Firstly, the induction of apoptosis was tested using an Annexin V-FITC/PI commercial kit (V13242, Thermo Fisher Scientific, USA). Second, caspase 3/7 activation was monitored using the CellEvent™ Caspase-3/7 Green Flow Cytometry Assay Kit (C10427, Thermo Fisher Scientific, USA). Both assays were performed according to the manufacturers’ protocols with one modification in the caspase induction assay: the use of CellEvent^TM Caspase-3/7 Green Detection Reagent was only for the detection of caspase 3/7 activation. The general procedure was as follows: 5 × 10^4 cells per well were seeded in a 24-well cell culture plate, and after 24 h, the cells were treated with 4 µM solution of complex (1) and cultivated for next 24 h. […] The trypsin was blocked by adding the cell culture medium to a final volume of 500 µL, and the resulting cell suspensions were divided into two separate 250 µL aliquots. The first set of aliquots was used to evaluate the Annexin V-FITC/PI assay, whilst the second one was used for the caspase 3/7 activation assay. Both assays were performed using a BD FACSVerse flow cytometer (Becton Dickinson, USA) in three independent experiments, each performed in duplicate.

A2780 cells = test: Induction of autophagy (CYTO-ID kit); assay type: cell-based, human; conditions: A2780, half-cytotoxic concentration, 24 h
Description: The induction of autophagy by complex (1) was studied using a CYTO-ID® Autophagy Detection Kit 2.0 (ENZO, New York, NY, USA) according to the manufacturer’s protocol. Briefly, the A2780 cells were seeded in a 24-well cell culture plate at 5 × 10^4 cells per well and cultivated for 24 h. The next day, the cells were treated with complex (1) at 4 µM. […] Then, the cells were stained with CYTO-ID® Green stain solution and incubated for 30 min in the dark. After the final wash with PBS, the cell suspensions were analyzed using the BD FACSVerse flow cytometer (Becton Dickinson, USA) in three separate experiments, while at least 10^4 events were recorded for each sample prepared in duplicates. The cells incubated with the mixture of chloroquine (10 µM) and rapamycin (0.5 µM) for 18 h were used as a positive control.

[2] = system: A2780R Cisplatin-resistant ovarian carcinoma cells; test: In vitro cytotoxicity (MTT assay), A2780R; assay type: cell-based, human; conditions: ± standard deviation, triplicate
Description: as §1

[3] = system: human cancer cell lines (A2780, A2780R, PC-3, 22Rv1, and THP-1); test: In vitro cytotoxicity, summary statements over the panel of cell lines; assay type: cell-based; conditions: IC50 for normal cell line/IC50 for cancerous cell line
Description: as §1

[4] = system: MRC5 human fetal fibroblasts; test: In vitro cytotoxicity (MTT assay), normal MRC-5 fibroblasts; assay type: cell-based; conditions: ± standard deviation, triplicate, read-out: IC50, MRC5 (healthy cells)
Description: as §1

PPARγ = test: Immunocytochemical analysis of PPARγ expression and localisation; assay type: cell-based, human; conditions: 100 nM, 1 h pre-treatment, LPS-stimulated THP1-Blue NF-κB macrophages
Description: THP1-Blue™ NF-κB cells were seeded onto a µ-Slide 8 Well (Ibidi; Gräfelfing, Germany) and differentiated into macrophages by […] (PMA) at the final concentration of 50 ng/mL, as was described previously.
Differentiated macrophages were washed by PBS and covered by fresh serum-free medium for 2 h. […] One hour later, the cells were challenged by LPS for 24 h. Then, the cells were washed by PBS and fixed by 4% paraformaldehyde dissolved in PBS for 10 min. Cell permeabilization and blocking of free binding sites were performed by 0.1% (v/v) Triton X100 and 5% (w/v) bovine serum albumin (BSA) dissolved in PBS for 1 h at room temperature. After that, cells were washed by PBS with 0.1% (v/v) Tween 20 and covered by fresh PBS with 5% BSA and 0.1% Tween 20 containing Alexa Fluor® 546-labelled anti-PPARγ antibody diluted 1:100 (catalogue number sc-7273; Santa Cruz Biotechnology; Dallas, TX, USA) for a further 24 h. Then, cells were washed by PBS with 0.1% Tween 20 and incubated with Hoechst stain diluted 1:2000 for 10 min. The remaining stain was washed out by PBS and covered by fresh PBS for further microscope analysis. The confocal microscope Leica TCS SP8 MP (Leica Microsystems, Mannheim, Germany) was used for obtaining the images for the immunocytochemical analysis of PPARγ expression and localization.

CC[PH](CC)(CC)[Au][S][C@@H]1O[C@H](COC(C)=O)[C@@H](OC(C)=O)[C@H](OC(C)=O)[C@H]1OC(C)=O [Auranofin, [3,4,5-triacetyloxy-6-(acetyloxymethyl)-oxane-2-thiolate-(triethylphosphine)gold(I)]]
IC50 [1]: 3.7 ± 0.7 µM | Activation of caspases 3/7 (caspases 3/7): the most effective gold(I) complex | Induction of autophagy (A2780 cells): not shown to cause metabolic stress strong enough to induce the autophagy | IC50 [2]: 3.4 ± 0.6 µM | selectivity index (SI) [3]: around 1 | IC50 [4]: 3.78 ± 0.01 µM

[Cl][Au].c1ccc(P(c2ccccc2)c2ccccc2)cc1 [[Au(PPh3)Cl]]
IC50 [1]: 9.9 ± 0.4 µM | Cells with active executioner caspases 3/7 (caspases 3/7): around 50% | Induction of autophagy (A2780 cells): significantly induced the autophagy | IC50 [2]: 5.2 ± 0.2 µM | IC50 [4]: 17 ± 0.5 µM | Effect on the amount of PPARγ (PPARγ): did not show this effect
